Results from PubChem BioAssay (NCI).
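96-well plates; 48 h exposure; 5 concentrations. Endpoints by linear interpolation between flanking doses. Not reached: highest tested concentration assigned. TGI: total growth inhibition.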

Legend:
Assay in all cases: NCI-60 cell line screen, 48 h
[1] = test system: RXF 393 renal
[2] = test system: ACHN renal
[3] = test system: HCT-116 colon
[4] = test system: SR leukemia
[5] = test system: K-562 leukemia
[6] = test system: A549 NSCLC
[7] = test system: NCI-H23 lung
[8] = test system: HS 578T breast
[9] = test system: RPMI-8226 leukemia
[10] = test system: COLO 205 colon
[11] = test system: HCT-15 colon
[12] = test system: SNB-19 CNS
[13] = test system: LOX IMVI melanoma
[14] = test system: A498 renal
[15] = test system: SF-268 CNS
[16] = test system: U251 CNS
[17] = test system: UACC-257 melanoma
[18] = test system: OVCAR-8 ovarian
[19] = test system: NCI/ADR-RES ovarian
[20] = test system: KM12 colon
[21] = test system: SK-OV-3 ovarian
[22] = test system: BT-549 breast
[23] = test system: DU-145 prostate
[24] = test system: NCI-H460 lung
[25] = test system: MDA-MB-231 breast
[26] = test system: PC-3 prostate
[27] = test system: MCF7 breast
[28] = test system: HL-60(TB) leukemia
[29] = test system: 786-0 renal
[30] = test system: SF-539 CNS
[31] = test system: UO-31 renal
[32] = test system: SN12C renal
[33] = test system: UACC-62 melanoma
[34] = test system: MDA-MB-435
[35] = test system: MOLT-4 leukemia
[36] = test system: TK-10 renal
[37] = test system: OVCAR-4 ovarian
[38] = test system: SK-MEL-5 melanoma
[39] = test system: OVCAR-3 ovarian
[40] = test system: EKVX NSCLC
[41] = test system: CCRF-CEM leukemia
[42] = test system: T-47D breast
[43] = test system: SW-620 colon
[44] = test system: MDA-N
[45] = test system: SNB-75 CNS
[46] = test system: IGROV1 ovarian
[47] = test system: HT29 colon
[48] = test system: HOP-92 NSCLC
[49] = test system: CAKI-1 renal
[50] = test system: NCI-H226 lung
[51] = test system: SK-MEL-2 melanoma
[52] = test system: OVCAR-5 ovarian
[53] = test system: M14 melanoma
[54] = test system: SF-295 CNS
[55] = test system: NCI-H522 lung
[56] = test system: MALME-3M melanoma
[57] = test system: HOP-62 NSCLC
[58] = test system: SK-MEL-28 melanoma
[59] = test system: HCC-2998 colon

CSc1ncc2c(n1)-c1ccccc1OC2N1CCCCC1 (stereo not drawn)
TGI [1]: > 100 µM | TGI [2]: > 100 µM | TGI [3]: > 100 µM | TGI [4]: 53.2 µM | TGI [5]: > 100 µM | TGI [6]: > 100 µM | TGI [7]: > 100 µM | TGI [8]: 99.2 µM | TGI [9]: 65.9 µM | TGI [10]: > 100 µM | TGI [11]: 84.5 µM | TGI [12]: > 100 µM | TGI [13]: 46.7 µM | TGI [14]: 49.9 µM | TGI [15]: > 100 µM | TGI [16]: > 100 µM | TGI [17]: > 100 µM | TGI [18]: > 100 µM | TGI [19]: > 100 µM | TGI [20]: > 100 µM | TGI [21]: > 100 µM | TGI [22]: 86.2 µM | TGI [23]: > 100 µM | TGI [24]: > 100 µM | TGI [25]: > 100 µM | TGI [26]: > 100 µM | TGI [27]: 87.6 µM | TGI [28]: 49 µM | TGI [29]: > 100 µM | TGI [30]: > 100 µM | TGI [31]: > 100 µM | TGI [32]: > 100 µM | TGI [33]: > 100 µM | TGI [34]: 87.2 µM | TGI [35]: 58 µM | TGI [36]: 73.2 µM | TGI [37]: > 100 µM | TGI [38]: 45.8 µM | TGI [39]: > 100 µM | TGI [40]: > 100 µM | TGI [41]: 49.8 µM | TGI [42]: 68.2 µM | TGI [43]: > 100 µM | TGI [44]: > 100 µM | TGI [45]: > 100 µM | TGI [46]: > 100 µM | TGI [47]: > 100 µM | TGI [48]: 84.2 µM | TGI [49]: 66.3 µM | TGI [50]: > 100 µM | TGI [51]: 96.6 µM | TGI [52]: > 100 µM | TGI [53]: > 100 µM | TGI [54]: > 100 µM | TGI [55]: 42.3 µM

O=C1Nc2ccccc2C1=Nc1ccc(S(=O)(=O)Nc2nccs2)cc1
TGI [1]: > 100 µM | TGI [56]: > 100 µM | TGI [2]: > 100 µM | TGI [3]: > 100 µM | TGI [4]: > 100 µM | TGI [5]: > 100 µM | TGI [6]: > 100 µM | TGI [7]: > 100 µM | TGI [57]: > 100 µM | TGI [8]: > 100 µM | TGI [10]: > 100 µM | TGI [11]: > 100 µM | TGI [12]: > 100 µM | TGI [13]: > 100 µM | TGI [14]: > 100 µM | TGI [15]: > 100 µM | TGI [16]: > 100 µM | TGI [17]: > 100 µM | TGI [18]: > 100 µM | TGI [19]: > 100 µM | TGI [20]: > 100 µM | TGI [21]: > 100 µM | TGI [22]: > 100 µM | TGI [23]: > 100 µM | TGI [24]: > 100 µM | TGI [25]: > 100 µM | TGI [26]: > 100 µM | TGI [27]: > 100 µM | TGI [28]: > 100 µM | TGI [29]: > 100 µM | TGI [30]: > 100 µM | TGI [31]: > 100 µM | TGI [32]: > 100 µM | TGI [33]: > 100 µM | TGI [34]: > 100 µM | TGI [35]: > 100 µM | TGI [36]: > 100 µM | TGI [37]: > 100 µM | TGI [58]: > 100 µM | TGI [38]: > 100 µM | TGI [39]: > 100 µM | TGI [40]: > 100 µM | TGI [41]: > 100 µM | TGI [42]: > 100 µM | TGI [43]: > 100 µM | TGI [44]: > 100 µM | TGI [45]: > 100 µM | TGI [46]: > 100 µM | TGI [47]: > 100 µM | TGI [48]: > 100 µM | TGI [49]: > 100 µM | TGI [50]: > 100 µM | TGI [51]: > 100 µM | TGI [52]: > 100 µM | TGI [53]: > 100 µM | TGI [59]: > 100 µM | TGI [54]: > 100 µM | TGI [55]: > 100 µM
